Like-named read-outs stand apart in the source and are kept apart here.
Tests used:
[1] = system: T-Rex 293 cell line SC3 cells having increased expression of androgen receptor protein; assay: Cellular growth inhibition, T-Rex 293 SC3 cells with increased androgen receptor expression (doxycycline), CellTiter-Glo; assay type: cell-based; conditions: T-Rex 293 SC3 cells with increased androgen receptor expression (exposed to 10 ng/mL doxycycline), 72 hours, CellTiter-Glo; read-out: GI50
Experimental: (§1) The following types of cells were prepared for this experiment: (i) a T-Rex 293 cell line having increased expression of androgen receptor protein due to exposure to doxycycline and (ii) a T-Rex 293 cell line lacking increased expression of androgen receptor protein. Ability of the test compounds to inhibit proliferation of the foregoing cell types was evaluated according to the procedures set forth below.
(§2) The doxycycline-inducible androgen receptor protein expressing cell line was established using the following protocol: T-Rex 293 cells were purchased from Invitrogen (Cat #R71007) and transfected using Lipofectamine 2000 with the wild-type androgen receptor protein sequence cloned into the pcDNA4/TO vector. Transfected cells were selected using 400 μg/mL Zeocin (Invitrogen Cat #R25001). Following selection, single clones were raised and maintained in Dulbecco's Modified Eagle Medium (DMEM) supplemented with 10% w/w Tetracycline-free fetal bovine serum (FBS) and 250 μg/mL Zeocin. Clones were analyzed for expression of androgen receptor protein in the presence and absence of 10 ng/ml doxycycline (Sigma Cat #D9891), and a single doxycycline-inducible clone (hereinafter “SC3”) was selected for use in downstream assays.
(§3) The SC3 cells were seeded on poly-D-lysine coated, black clear-bottom 384-well plates at 2500/well, in 25 μL Phenol Red Free Dulbecco's Modified Eagle Medium (DMEM) supplemented with 10% w/w charcoal-dextran treated fetal bovine serum (FBS) and 1% w/w pen-strep, with or without 10 ng/mL doxycycline. Pen-Strep is a commercially available mixture of penicillin G and streptomycin, which is used in mammalian cell culture media to prevent bacterial contamination. Phenol Red Free Dulbecco's Modified Eagle Medium (DMEM) supplemented with 10% w/w charcoal-dextran treated fetal bovine serum (FBS) and 1% w/w pen-strep, with or without 10 ng/mL doxycycline is herein referred to as Treatment Medium. Following seeding of cells in the plates, the plates were spun at 300×g for 30 seconds, then equilibrated to room temperature for 30 minutes, and then deposited in a humidified tissue culture incubator maintained at 37° C. with 5% CO2.
(§4) At 24 hours after seeding of the cells, dilutions of test compound were prepared in DMSO and dissolved in Treatment Medium, to achieve a final DMSO concentration of 0.5% w/w, thereby providing the Test Compound Solution. A 25 μL aliquot of the Test Compound Solution was added to cells in the well plates. An equal volume of a solution containing DMSO and Treatment Medium was used as a negative control. Following treatment of cells with Test Compound Solution or said equal volume of a solution containing DMSO and Treatment Medium, the plates were spun at 300×g for 30 seconds, and then left in an incubator for 72 hours.
(§5) At the end of the treatment duration, cell viability was quantified with CellTiter-Glo 2.0 reagent (Promega Cat #G9243). For this purpose, plates were equilibrated to room temperature for 30 minutes, and then 25 μL of CellTiter-Glo 2.0 reagent was added to cells in the plate wells. Plates were then agitated on a shaker for two minutes at 500 rpm and subsequently incubated at room temperature for 10 minutes. Following incubation, the plates were spun at 3000×g for 30 seconds, then sealed with an optical adhesive cover, and luminescence readings were measured with an EnVision Plate Reader.
(§6) Data was normalized using zero luminescence for baseline. A four-parameter non-linear regression curve fit was applied to dose-response data in GraphPad Prism data analysis software to determine the half-maximal growth inhibitory concentration (GI50) for each test compound.

[2] = system: T-Rex 293 cell line SC3 cells lacking increased expression of androgen receptor protein; assay: Cellular growth inhibition, T-Rex 293 SC3 cells lacking increased androgen receptor expression (no doxycycline), CellTiter-Glo; assay type: cell-based; conditions: T-Rex 293 SC3 cells lacking increased androgen receptor expression (not exposed to doxycycline), 72 hours, CellTiter-Glo; read-out: GI50
Experimental: as §1, §2, §3, §4, §5, §6

VCaP cells = assay: Cellular growth inhibition assay for VCaP cells, CellTiter-Glo; assay type: cell-based, human; conditions: VCaP cells, 72 hours, CellTiter-Glo, read-out: GI50
Experimental: VCaP cells were purchased from American Type Cell Culture (ATCC Cat #CRL2876) and then seeded on poly-D-lysine coated, black clear-bottom 384-well plates at 5000/well in 25 μL Dulbecco's Modified Eagle Medium (DMEM) supplemented with 10% w/w Fetal bovine serum (FBS) and 1% w/w Pen-Strep. Pen-Strep is a commercially available mixture of penicillin G and streptomycin, which is used in mammalian cell culture media to prevent bacterial contamination. Dulbecco's Modified Eagle Medium (DMEM) supplemented with 10% w/w fetal bovine serum (FBS) and 1% w/w Pen-Strep is herein referred to as Treatment Medium. Following seeding of cells in the plates, the plates were spun at 300×g for 30 seconds, then equilibrated to room temperature for 30 minutes, and then deposited in a humidified tissue culture incubator maintained at 37° C. with 5% CO2.
as §4, §5, §6

Row | Structure (SMILES) | GI50 (VCaP cells; Homo sapiens) [nM] | GI50 (VCaP cells) [nM] | GI50 [1] [nM] | GI50 [2] [nM]
1 | Cn1cc(-c2cc(NC(=O)CCCCCOC3CCN(c4ccc(C(=O)N[C@H]5CC[C@H](Oc6ccc(C#N)c(Cl)c6)CC5)nn4)CC3)ccc2Oc2ccc(F)cc2F)c2cc[nH]c2c1=O [I-215] |  | > 3000 | < 500 | 500 to 1500
2 | Cn1cc(-c2cc(C3(O)COC3)ccc2Oc2ccc(OCC3CCN(c4ccc(C(=O)NC5CCC(Oc6ccc(C#N)c(Cl)c6)CC5)nn4)CC3)cc2)c2cc[nH]c2c1=O (stereo not drawn) [I-236, N-[4-(3-chloro-4-cyano-phenoxy)cyclohexyl]-6-[4-[[4-[4-(3-hydroxyoxetan-3-yl)-2-(6-methyl-7-oxo-1H-pyrrolo[2,3-c]pyridin-4-yl)phenoxy]phenoxy]methyl]-1-piperidyl]pyridazine-3-carboxamide] |  | < 500 | < 500 | > 3000
3 | CCS(=O)(=O)Nc1ccc(Oc2cccc(OCCOC3CCN(c4ncc(C(=O)N[C@H]5CC[C@H](Oc6ccc(C#N)c(Cl)c6)CC5)cn4)CC3)c2)c(-c2cn(C)c(=O)c3[nH]ccc23)c1 [I-5, N-[4-(3-chloro-4-cyano-phenoxy)cyclohexyl]-2-[4-[2-[3-[4-(ethylsulfonylamino)-2-(6-methyl-7-oxo-1H-pyrrolo[2,3-c]pyridin-4-yl)phenoxy]phenoxy]ethoxy]-1-piperidyl]pyrimidine-5-carboxamide] | < 500 |  | < 500 | 500 to 1500
4 | Cn1cc(-c2cc(C(C)(C)O)ccc2Cc2ccc(CCC3CCN(c4ccc(C(=O)NC5CCC(Oc6ccc(C#N)c(Cl)c6)CC5)nn4)CC3)cc2)c2cc[nH]c2c1=O (stereo not drawn) [I-205, N-[4-(3-chloro-4-cyano-phenoxy)cyclohexyl]-6-[4-[2-[4-[[4-(1-hydroxy-1-methyl-ethyl)-2-(6-methyl-7-oxo-1H-pyrrolo[2,3-c]pyridin-4-yl)phenyl]methyl]phenyl]ethyl]-1-piperidyl]pyridazine-3-carboxamide] | 500 to 1500 |  | < 500 | > 3000

Continued, in another order:

Row | GI50 (VCaP cells; Homo sapiens) [nM] | GI50 (VCaP cells) [nM] | Structure (SMILES) | GI50 [1] [nM] | GI50 [2] [nM]
5 | < 500 |  | Cn1cc(-c2cc(C(C)(C)O)ccc2Oc2ccc(CC3CC4(C3)CN(c3ccc(C(=O)N[C@H]5CC[C@H](Oc6ccc(C#N)c(Cl)c6)CC5)nn3)C4)cc2)c2cc[nH]c2c1=O [I-118] | < 500 | < 500
6 | < 500 |  | Cn1cc(-c2cc(CS(C)(=O)=O)ccc2Oc2ccc(CCC3CCN(c4ccc(C(=O)NC5CCC(Oc6ccc(C#N)c(Cl)c6)CC5)nn4)CC3)cc2)c2cc[nH]c2c1=O (stereo not drawn) [I-237, N-[4-(3-chloro-4-cyano-phenoxy)cyclohexyl]-6-[4-[2-[4-[2-(6-methyl-7-oxo-1H-pyrrolo[2,3-c]pyridin-4-yl)-4-(methylsulfonylmethyl)phenoxy]phenyl]ethyl]-1-piperidyl]pyridazine-3-carboxamide] | < 500 | < 500
7 | < 500 |  | CCS(=O)(=O)c1ccc(Oc2ccc(CCC3CCN(c4ccc(C(=O)NC5CCC(Oc6ccc(C#N)c(Cl)c6)CC5)nn4)CC3)c(F)c2)c(-c2cn(C)c(=O)c3ccccc23)c1 (stereo not drawn) [I-243, N-[4-(3-chloro-4-cyano-phenoxy)cyclohexyl]-6-[4-[2-[4-[4-ethylsulfonyl-2-(2-methyl-1-oxo-4-isoquinolyl)phenoxy]-2-fluoro-phenyl]ethyl]-1-piperidyl]pyridazine-3-carboxamide] | < 500 | > 3000
8 | < 500 |  | CCS(=O)(=O)c1ccc(Oc2cccc(CCCOC3CCN(c4ccc(C(=O)N[C@H]5CC[C@H](Oc6ccc(C#N)c(Cl)c6)CC5)nn4)CC3)c2F)c(-c2cn(C)c(=O)c3[nH]ccc23)c1 [I-27] | < 500 | < 500
9 | < 500 |  | CCS(=O)(=O)c1ccc(Oc2ccc(CCCC3CCN(c4ccc(C(=O)N[C@H]5CC[C@H](Oc6ccc(C#N)c(Cl)c6)CC5)nn4)CC3)c(F)c2)c(-c2cn(C)c(=O)c3[nH]ccc23)c1 [I-83] | < 500 | < 500
10 | < 500 |  | CCS(=O)(=O)Nc1ccc(Oc2cccc(OCCOC3CCN(c4ccc(C(=O)N[C@H]5CC[C@H](Oc6ccc(C#N)c(Cl)c6)CC5)nn4)CC3)c2F)c(-c2cn(C)c(=O)c3[nH]ccc23)c1 [I-16] | < 500 | < 500
